Test results: US20110152166A1, “METHOD OF MODULATION OF PROTEIN PHOSPHORYLATION-DEPENDENT CONFORMATIONAL TRANSITIONS WITH LOW MOLECULAR WEIGHT COMPOUNDS” (priority 2006, published 2011)
Ends that are not written are not given here.

Experiments:
PKA = biological target: T1, PKA (Homo sapiens, UniProt P17612); assay: AGC kinase panel activity assay (Kemptide); type: biochemical; details: for PKA (%) activity: 1% DMSO = 100%
T1 construct: purchased Sigma
Protocol: (§1) Protein kinase activity tests were performed essentially as previously described (Balendran et al., 2000; Biondi et al., 2000; Biondi et al., 2001). Substrates used were either MBP (for PKCζ or polypeptides (Crosstide for PKB, S6K, SGK and PRK2; T308tide for PDK1, and Kemptide for PKA). PKA (Sigma) was measured in the presence of 100 μM cAMP. Alternatively, assays were performed in a 96 well format, aliquots spotted on p81 phosphocellulose papers (Whatmann), washed in 0.01% phosphoric acid, dried, and then exposed and analysed using Phospholmager technology (Storm, Molecular Dynamics). Activity measurements were performed in duplicates with less than 10% difference between duplicate pairs. Experiments were repeated at least twice, although most of the experiments were repeated multiple times, with similar results.
Activity assays for each kinase were performed as described in Materials and Methods in the presence of 1% DMSO (100%). Except PKA, all protein kinases were produced as a GST-fusion. S6K1, PKBα, SGK mutants used were S6K1-T2-[Thr412Glu], PKBa[Ser473Asp] and ΔN-SGK[Ser422Asp].

PDK1 50-360 [CT-PIF] = biological target: T2, PDK1 50-360 [CT-PIF] (Homo sapiens, UniProt O15530); assay: PDK1 activity assay with T308tide; type: biochemical; details: for AC50: PDK1 50-360 [CT-PIF]; for effect on specific activity of chimera (in words): PDK1 50-360[CT-PIF] chimera
T2 construct: comprising residues 50-360 joined to the last 48 aminoacids from PRK2; His-tag (pFastbac-HT) (N); made in house; host or cells: insect cells (pFastbac-HT baculovirus system); the other entry of the earlier key: PKN2 (Q16513, Serine/threonine-protein kinase N2)
T2 sequence (O15530 with tags, fused parts or gaps): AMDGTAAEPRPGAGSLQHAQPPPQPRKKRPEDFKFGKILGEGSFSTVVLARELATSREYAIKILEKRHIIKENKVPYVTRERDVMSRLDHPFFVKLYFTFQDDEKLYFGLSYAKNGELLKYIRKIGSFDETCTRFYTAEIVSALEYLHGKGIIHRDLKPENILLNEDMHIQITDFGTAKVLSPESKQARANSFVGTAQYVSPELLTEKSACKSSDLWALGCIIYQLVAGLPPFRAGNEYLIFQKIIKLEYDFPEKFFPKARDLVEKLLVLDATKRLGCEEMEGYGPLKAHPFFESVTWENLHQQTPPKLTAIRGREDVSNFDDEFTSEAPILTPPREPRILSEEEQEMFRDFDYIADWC
From the text: We generated a PDK1 chimera consisting of the catalytic domain of PDK1 comprising residues 50-360 joined to the last 48 aminoacids from PRK2, which include the sequence of PIFtide (PDK1 50-360[CT-PIF]). PIFtide binds with high affinity to PDK1. Therefore, we expected that the HM/PIF-pocket in this protein would be strongly bound to the C-terminus of PRK2. In this scenario, the specific activity of the PDK1 50-360[CT-PIF] chimera would not be affected by compounds which otherwise would bind to the PDK1 50-360 HM/PIF-pocket. The PDK1 50-360[CT-PIF] chimera had 1.5-fold higher specific activity than the PDK1 catalytic domain alone. Furthermore, the activity of PDK1 50-360[CT-PIF] chimera was not affected by PIFtide at concentrations that activated the PDK1 50-360 protein (FIG. 2G). Finally, PDK1 50-360[CT-PIF] specific activity was not affected by compound 1, further supporting the notion that PIFtide and compound 1 targeted an overlapping site in the catalytic domain of PDK1.
For the spectrofluorometer assay, the PDK1 protein used was the catalytic domain of PDK1 (50-359) produced in SF9 insect cells using baculovirus expression technology (Invitrogen). PDK1 was cloned in pFastbac-HT plasmid (NcoI-KpnI sites) taking advantage of an endogenous NcoI site in the PDK1 DNA sequence. The codon corresponding to aminoacid 360 was replaced by a stop codon. […]
as §1
PDK1 activity assay was performed in a 20 μl mix containing 50 mM Tris-HCl pH 7.5, 0.05 mg/ml BSA, 0.1% β-mercaptoethanol, 10 mM MgCl2, 100 μM [γ^32P]ATP (5-50 cpm/pmol), 0.003% Brij, 150 ng PDK1, and T308tide (from 0.05 to 1 mM). PDK1 specific activity was approximately 5 U/mg (when measured at 1 mM T308tide). […]
PDK1 activity was measured at room temperature using a polypeptide substrate derived from the activation loop phosphorylation site of PKB, T308tide (0.1 mM). […]

| Compound | effect on PKA activity (in words) (PKA; 20 μM) | PKA (%) activity (PKA; 20 μM compound) [%] | PKA (%) activity (PKA; 200 μM compound) [%] | AC50 (PDK1 50-360 [CT-PIF]) | effect on specific activity of chimera (in words) (PDK1 50-360 [CT-PIF]) |
| --- | --- | --- | --- | --- | --- |
| O=C(O)CSC(CC(=O)c1ccc(Cl)cc1)c1ccccc1 (stereo not drawn) [Compound 1] | no significant effect | 100 | 94 | No Effect | not affected |
| COC(=O)CSC(CC(=O)c1ccc(Cl)cc1)c1ccccc1 (stereo not drawn) [Compound 2] | – | 109 | 103 | – | – |
| REPRILSEEEQEMFRDFDYIADWC [PIFtide, reference compound] | – | – | – | No Effect | not affected |
